Source: patent US11246907B2, “Immunosuppressive agents and their use in therapy” (Norwegian University of Science and Technology, priority 2013, dated 2022)
Ends that are not written are not given here.

Legend:
RPMI-8226 = experiment: Cell growth/cytotoxicity, multiple myeloma cell line RPMI-8226; type: cell-based
Method: (§1) Cells were seeded into 96-well plates and ATX-101, kinase inhibitors (SB203580 and BIRB0796), and polyIC were added alone or in combination at the indicated concentrations. Cells were exposed continuously and harvested every day for the next four days using the MTT (3-(4.5-Dimethylthiazol-2-yl)-2.5 diphenyl-tetrazolium bromide) assay (Gilljam et al., 2009, supra). The average from at least 4 wells was used to calculate cell survival.
To further elucidate whether ATX-101 directly affected the MAPK and PI3K pathways, we analyzed the phosphorylation levels of downstream kinases in JJN-3 cells at different time points after ATX-101 addition. The phosphorylation of Akt and the p70 S6 kinase (downstream of mTOR) were both decreased by ATX-101 treatment.

normal cells = conditions: 4 μM dose; cited from earlier work
[1] = tested on: ERK1 Thr202/Tyr204 and ERK2 Thr185/Tyr187 phosphorylation; experiment: Western blot of ERK1/2 phosphorylation in JJN-3 cells; type: cell-based; conditions: 6 μM ATX-101, 4, 8, 24 h
[2] = tested on: peripheral blood monocytes; experiment: Multiplex (27-plex) cytokine secretion of TLR-ligand stimulated peripheral blood monocytes; type: cell-based, human; conditions: 4 h
Method: Measured cytokine levels were normalized to cytokine levels from monocytes stimulated with TLR ligand alone. A two fold or higher increase in cytokine level after TLR stimulation was defined as cytokine induction. […] Isolated monocytes were stimulated with 10 ng/ml LPS and 40 μg/ml polyIC alone and in combination with 4 μM ATX-101 for 4 h. […] DRAQS was used for nuclear staining. Bar, 5 μm.
Data is from one representative donor out of three; and (B-E) show multiplex analysis of cytokine levels produced by peripheral blood monocytes stimulated with 10 ng/ml LPS (B and D, same donor) and 40 μg/ml polyIC (C and E, same donor) after 4 h. (B and C) Stimulated-monocytes were treated with 4 μM ATX-101, 10 μM SB203580 (p38 MAPK inhibitor), and combination of ATX-101 and SB203580. (D and E) Stimulated-monocytes were treated with 4 μM ATX-101, 5 and 10 μM LY294002 (PI3K class I inhibitor), and combination of ATX-101 and LY294002. Measured cytokine levels were normalized to cytokine levels from monocytes stimulated with TLR ligand alone. A two fold or higher increase in cytokine level after TLR stimulation was defined as cytokine induction. # Value is too low to be visible in the column diagram; ? cytokine measurement was out of range. Data is from representative experiments out of two.
(§2) Measured cytokine levels were normalized to cytokine levels from monocytes stimulated with TLR ligand alone. A two fold or higher increase in cytokine level after TLR stimulation was defined as cytokine induction. ? Cytokine measurement was out of range. Data is from one experiment out of two.
Measured cytokine levels were normalized to cytokine levels from monocytes stimulated with TLR ligand alone. Data is from one donor. We obtained similar results for IL-6 secretion in two other donors.
as §2, with “# Value is too low to be visible in the column diagram; 0” for “?”
Peripheral blood mononuclear cells were isolated from A+ buffy coats (Blood Bank, St. Olav's University Hospital, Trondheim, Norway) by density gradient centrifugation (Lymphoprep; Axis-Shield PoC, Oslo, Norway). Mononucleated cells were seeded at 4 million cells/ml in serum-free RPMI 1640 supplemented with glutamine and gentamicin. After 60-90 min the adherent cell population was washed before cultured in medium with 10% heat-inactivated human serum (Blood Bank, St. Olav's University Hospital). ATX-101 (4 μM [Innovagen, Lund, Sweden]), ATX-A (4 μM, [Innovagen]) (ATX-A is represented in SEQ ID NO: 1206 and contains the motif RALVK (SEQ ID NO: 1207), which is not capable of interacting with PCNA), p38 inhibitor (SB203580, 10 μM, [Sigma-Aldrich]), PI3K inhibitor (LY294002, 5 and 10 μM, [Sigma-Aldrich]), and Akt inhibitor (Akt inhibitor XVIII SC66, 1 μg/ml, [Sigma-Aldrich]) were added in serum-free medium and incubated for 5 min before LPS (10 ng/ml, [Sigma-Aldrich]), polylC (40 μg/ml, [GE Healthcare, Little Chalfont, UK]), PAM3Cys (10 ng/ml, [Invivogen, San Diego, Calif., USA]) or R848 (10 μg/ml, [Invivogen]) were added in serum-containing medium. The cells were incubated for 4 h before the supernatants were harvested and frozen prior to further cytokine analysis by the 27-plex assay (Bio-Plex ProTM Human cytokine 27-plex assay).

JJN-3 cells = experiment: Cell survival (MTT) assay, multiple myeloma cell line JJN-3; type: cell-based; conditions: 6 μM ATX-101 with 5 μM LY294002 or 10 μM SB20358
Method: Phosphorylated kinase levels were corrected for loading differences (β-tubulin) and normalized to untreated control cells. Data is from three independent experiments (mean±SD).
The multiple myeloma cell lines JJN-3 (gift from J. Ball, University of Birmingham, United Kingdom) were grown in RPMI 1640 (Sigma-Aldrich, Schnelldorf, Germany) supplemented with 10% FCS, 2 mM glutamine (Sigma-Aldrich), 2.5 μg/ml amphotericin B (Sigma-Aldrich) and 100 μg/ml gentamicin (Invitrogen, Carlsbad, Calif., USA). HaCaT cells (spontaneously transformed keratinocytes) were cultured in DMEM (Sigma-Aldrich) containing FCS, glutamine, amphotericin B, and gentamicin. All cells were cultured at 37° C. in a humidified atmosphere of 5% CO2.
as §1

monocytes = experiment: Annexin staining / flow cytometry of monocytes (apoptosis); type: cell-based, human; conditions: for Percentage of annexin positive cells: 4 hours, monocytes
Method: Annexin staining was used to determine cell viability and cells were counted using flow cytometry.
Peripheral blood […] were isolated from A+ buffy coats (Blood Bank, St. Olav's University Hospital) by density gradient centrifugation (Lymphoprep; Axis-Shield PoC, Oslo, Norway). The adherent cell fraction after 90 minute incubation, termed monocytes, were washed twice with HANKS and maintained in RPMI 1640 supplemented with 2 mM glutamine, […] gentamicin and 25% heat-inactivated HS over-night. Cells were cultured at 37° C. in a humidified atmosphere of 5% CO2 over-night. […] An R11 peptide and no peptide treatment were used as controls. After 4 hours, the cells were washed once in PBS, and re-suspended in buffer as recommended by the manufacturer of the Annexin V-Pacific Blue kit (Invitrogen). Cells were identified monocytes according to size (FSC) and granularity (SSC).

[3] = tested on: Akt Ser473 phosphorylation; experiment: Western blot of Akt Ser473 phosphorylation in JJN-3 cells; type: cell-based; conditions: 6 μM ATX-101, 4, 8, 24 h

In the case of Ac-MDRWLVKWKKKRKIRRRRRRRRRRR [ATX-101], the “cytotoxic effects of melphalan in combination with kinase inhibitors and ATX-101” value (RPMI-8226) is listed as “enhanced the cytotoxic effects of melphalan”, the “growth-inhibitory effects of ERK5 and MEK1 inhibitors in combination with ATX-101” value (RPMI-8226) is listed as “increased the growth-inhibitory effects of ERK5 and MAPK kinase 1 (MEK1) inhibitors” and the “toxicity on normal cells in BMCS assays” value (normal cells) is listed as “low toxicity”. The ERK1/2 phosphorylation [1] was “transient increase”, the “cytokine secretion, combination of ATX-101 and p38 MAPK inhibitor” value ([2]; LPS or polyIC, 4 μM ATX-101 + 10 μM SB203580) was “increased reduction of most cytokines” and the “cytokine secretion, combination of ATX-101 and PI3K inhibitor LY294002” value ([2]; LPS or polyIC, 4 μM ATX-101 + 5 and 10 μM LY294002) was “reduction in the secretion of some cytokines”. For the same substance, the “cytokine secretion from stimulated monocytes, single agent” value ([2]; LPS or polyIC, ATX-101 4 μM, SB203580 10 μM, LY294002 5 and 10 μM, SC66 1 μg/ml) was “reduced cytokine secretion”, the “basal level production of CXCL10” value ([2]; isolated monocytes, 4 μM) was “decreased” and the “basal level of IL-12” value ([2]; monocytes, 4 μM) was “reduced the basal level of IL-12”. The “secretion of LPS-induced cytokines” value ([2]; monocytes, 4 μM, 10 ng/ml LPS) was “efficiently reduced”, the “secretion of CXCL10, CCL2, CCL3 and CCL4 after TLR3 stimulation with polyIC” value ([2]; monocytes, 4 μM, 40 μg/ml polyIC) was “reduced the secretion of CXCL10, CCL2, CCL3, and CCL4” and the “growth-inhibitory effect of kinase inhibitors in combination with ATX-101 (cell growth, MTT)” value (JJN-3 cells) was “increased the growth-inhibitory effect of p38 MAPK and class I PI3K inhibitors”. The “Percentage of annexin positive cells” value (monocytes; 5μM peptide treatment) was 72%, the “Percentage of annexin positive cells” value (monocytes; 10 μM peptide treatment) was 79% and the “induction of apoptosis in monocytes” value (monocytes; at the concentration used for cytokine secretion (4 μM)) was “did not induce apoptosis”. For the same substance, the “phosphorylation of Akt” value [3] was “decreased”.
